One may read the Km as the concentration of substrate that gives half-maximal velocity. In general, stoichiometry N refers to a count of units in the complex or per binding partner.

One experiment concerns T1, NdasCDO.
T1 construct: gene Ndas1146; both subunits co-expressed from pRSFDuet-1 in E. coli BL21(DE3), nickel HisTrap purified; A monomer 22 kDa, B monomer 11 kDa; filament of alternating A and B homodimers (A2B2 repeat)
In words: UV absorbance, initial rates. The class given is biochemical, Nocardiopsis dassonvillei. The conditions noted are these: 50 mM Tris pH 9.0, 200 mM NaCl, 30 °C; O2 as oxidant.

Experiment [1] concerns the target NdasCDO subunit A (NdasCDO-A), cyclodipeptide oxidase subunit A from Nocardiopsis dassonvillei (Nocardiopsis dassonvillei) (UniProt D7B1W6). In words: cryo-EM structure; helical reconstruction of NdasCDO filaments; purified complex dialysed against 20 mM Tris pH 9, 200 mM NaCl, 5 mM DTT, 4 uM on the grid; local refinement with a mask over two dimers of subunit A and two dimers of subunit B.

The target of experiment [2] is NdasCDO subunit B (NdasCDO-B), cyclodipeptide oxidase subunit B from Nocardiopsis dassonvillei (Nocardiopsis dassonvillei) (UniProt D7B1W7). The description is as above.

`O=C1CNC(=O)[C@H](Cc2ccccc2)N1` [cFG]: the Km in the experiment with NdasCDO stood at 4200 µM.
On to `O=C1N[C@@H](Cc2c[nH]c3ccccc23)C(=O)N[C@H]1Cc1ccccc1` [cWF], for which the Michaelis constant (Km) in the experiment on NdasCDO came to 80 µM.
With `O=C1N[C@@H](Cc2c[nH]c3ccccc23)C(=O)N[C@H]1CO` [cWS], the Michaelis-Menten constant (Km) in the experiment with NdasCDO came out at 800 µM.
In turn, “NdasCDO subunit A (NdasCDO-A), cyclodipeptide oxidase subunit A from Nocardiopsis dassonvillei (from UniProt D7B1W6 2-157) (enzyme)” displayed a stoichiometry N in experiment [1] of 2.
In experiment [2], “NdasCDO subunit B (NdasCDO-B), cyclodipeptide oxidase subunit B from Nocardiopsis dassonvillei (from UniProt D7B1W7 1-105) (enzyme)” yielded a stoichiometry N of 2.

These data come from PMC11760959, “Broad substrate scope C-C oxidation in cyclodipeptides catalysed by a flavin-dependent filament” (Nature Communications, 2025).
